Experimental data as given in patent EP4685142A1, “TRIAZINE COMPOUND AND USE THEREOF” (Chengdu Zenitar Biomedical Technology Co., Ltd., priority 2023, dated 2024).
Where two headings read alike, the source gives them in different places.

Legend:
[1] = Pharmacokinetic evaluation in Balb/c mice; type: in vivo; conditions: mouse, in vivo, 5 mg/kg
From the text: 4. Pharmacokinetic evaluation of compounds in Balb/c mice
Experimental purpose: to understand pharmacokinetic properties of the compounds.
Experimental basis: Technical Guidelines for Nonclinical Pharmacokinetic Studies of Chemical Drugs, 2014.
Experimental protocol: the pharmacokinetic properties of the compounds were investigated via intravenous administration and intragastric administration in Balb/c mice.
The blood drug concentration was quantitatively analyzed by LC-MS/MS, and pharmacokinetic parameters were calculated, such as peak concentration (Cmax), area under the concentration-time curve (AUC(0-t)), half-life (T1/2), clearance (CL), volume of distribution at steady state (Vdss), and bioavailability (F).
The results of pharmacokinetic evaluation are shown in Table 5 below: Table 5 Pharmacokinetic test results of compounds in Balb/c mice

NLRP3 inflammasome = molecular target: T1, NLRP3 inflammasome (Homo sapiens, UniProt Q96P20); experiment: Inhibitory activity of NLRP3 inflammasome in human monocytes (THP-1 cells, LPS + Nigericin, IL-1β ELISA); type: cell-based
T1 construct: host or cells: THP-1 cells
T1 sequence (Q96P20 whole entry): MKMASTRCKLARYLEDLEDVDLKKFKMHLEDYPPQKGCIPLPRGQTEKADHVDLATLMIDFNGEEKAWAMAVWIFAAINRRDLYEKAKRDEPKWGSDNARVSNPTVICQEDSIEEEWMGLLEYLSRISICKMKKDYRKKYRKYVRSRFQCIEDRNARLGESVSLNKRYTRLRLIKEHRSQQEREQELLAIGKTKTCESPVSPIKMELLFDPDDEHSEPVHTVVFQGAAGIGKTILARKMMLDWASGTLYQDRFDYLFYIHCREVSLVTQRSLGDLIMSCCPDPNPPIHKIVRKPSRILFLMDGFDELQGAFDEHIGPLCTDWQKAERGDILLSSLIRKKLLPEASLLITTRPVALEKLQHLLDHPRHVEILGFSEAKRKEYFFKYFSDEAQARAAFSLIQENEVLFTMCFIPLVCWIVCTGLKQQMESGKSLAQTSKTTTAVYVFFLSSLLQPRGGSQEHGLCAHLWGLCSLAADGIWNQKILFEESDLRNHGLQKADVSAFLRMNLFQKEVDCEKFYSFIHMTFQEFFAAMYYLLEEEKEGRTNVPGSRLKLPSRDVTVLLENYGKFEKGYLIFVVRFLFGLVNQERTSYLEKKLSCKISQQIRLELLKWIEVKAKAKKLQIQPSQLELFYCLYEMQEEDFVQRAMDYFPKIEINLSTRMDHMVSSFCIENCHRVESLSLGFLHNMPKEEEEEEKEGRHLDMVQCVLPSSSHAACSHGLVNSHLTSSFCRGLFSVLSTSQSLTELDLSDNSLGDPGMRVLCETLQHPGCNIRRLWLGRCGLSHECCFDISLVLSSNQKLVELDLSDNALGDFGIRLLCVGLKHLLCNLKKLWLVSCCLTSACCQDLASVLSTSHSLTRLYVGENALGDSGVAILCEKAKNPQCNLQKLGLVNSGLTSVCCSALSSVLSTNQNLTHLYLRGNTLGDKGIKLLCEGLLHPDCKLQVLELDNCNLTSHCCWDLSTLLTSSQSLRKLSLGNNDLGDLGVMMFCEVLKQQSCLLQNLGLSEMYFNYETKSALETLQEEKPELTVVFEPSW
Procedure: 1. Determination of inhibitory activity of NLRP3 inflammasome in human monocytes
Experimental method: THP-1 cells were cultured in RPMI culture medium containing PMA (10 µM), and then inoculated in 48-well plates at a density of 2×10^5 cells/mL, the plates were incubated overnight in a 5% CO2 incubator at 37°C. The next day, the above culture medium was replaced with Opti-MEM culture medium containing 1 µg/mL LPS. After 3 hours, the grown cells were simulated for 40 min with a drug, and then simulated for 40 min with Nigericin (10 µM), and a cell supernatant was harvested for ELISA analysis.
Table 2 Inhibitory activity of NLRP3 inflammasome

[2] = In vivo brain-to-plasma ratio in mice; conditions: for Brain / Plasma: male mice, oral 10 mg/kg
Procedure: Evaluation of in vivo brain-to-plasma ratio of compound
Experimental purpose: to obtain the brain-to-plasma ratio of the compound
Experimental protocol: the brain-to-plasma ratio of the compound was investigated by monitoring the content of the compound in mouse brain and plasma.
Experimental procedure: the compound was weighed, followed by adding a small amount of DMSO and adding a sodium chloride solution for injection, to prepare a 10 mg · mL^-1 compound solution for administration. Male mice were orally administered at 10 mg · kg^-1, and whole plasma and whole brain tissue were sampled at 1 h and 6 h after administration (n=3). […] A centrifuge tube was weighed as M1, the centrifuge tube containing the whole brain tissue was weighed as M2, the centrifuge tube containing water for homogenization was weighed as M3, and the centrifuge tube after the removal of 30 µL homogenate was weighed as M4.
Standard curve range: 10-10,000 ng·mL^-1. Content of drug in brain = measured value × 0.03 × (M3−M1)/[(M2−M1)×(M3−M4)].

[3] = molecular target: T2, hERG potassium ion channel (Homo sapiens, UniProt Q12809); experiment: Inhibition of hERG potassium ion channel (CHO cells stably expressing hERG, Qpatch)
T2 sequence (Q12809 whole entry): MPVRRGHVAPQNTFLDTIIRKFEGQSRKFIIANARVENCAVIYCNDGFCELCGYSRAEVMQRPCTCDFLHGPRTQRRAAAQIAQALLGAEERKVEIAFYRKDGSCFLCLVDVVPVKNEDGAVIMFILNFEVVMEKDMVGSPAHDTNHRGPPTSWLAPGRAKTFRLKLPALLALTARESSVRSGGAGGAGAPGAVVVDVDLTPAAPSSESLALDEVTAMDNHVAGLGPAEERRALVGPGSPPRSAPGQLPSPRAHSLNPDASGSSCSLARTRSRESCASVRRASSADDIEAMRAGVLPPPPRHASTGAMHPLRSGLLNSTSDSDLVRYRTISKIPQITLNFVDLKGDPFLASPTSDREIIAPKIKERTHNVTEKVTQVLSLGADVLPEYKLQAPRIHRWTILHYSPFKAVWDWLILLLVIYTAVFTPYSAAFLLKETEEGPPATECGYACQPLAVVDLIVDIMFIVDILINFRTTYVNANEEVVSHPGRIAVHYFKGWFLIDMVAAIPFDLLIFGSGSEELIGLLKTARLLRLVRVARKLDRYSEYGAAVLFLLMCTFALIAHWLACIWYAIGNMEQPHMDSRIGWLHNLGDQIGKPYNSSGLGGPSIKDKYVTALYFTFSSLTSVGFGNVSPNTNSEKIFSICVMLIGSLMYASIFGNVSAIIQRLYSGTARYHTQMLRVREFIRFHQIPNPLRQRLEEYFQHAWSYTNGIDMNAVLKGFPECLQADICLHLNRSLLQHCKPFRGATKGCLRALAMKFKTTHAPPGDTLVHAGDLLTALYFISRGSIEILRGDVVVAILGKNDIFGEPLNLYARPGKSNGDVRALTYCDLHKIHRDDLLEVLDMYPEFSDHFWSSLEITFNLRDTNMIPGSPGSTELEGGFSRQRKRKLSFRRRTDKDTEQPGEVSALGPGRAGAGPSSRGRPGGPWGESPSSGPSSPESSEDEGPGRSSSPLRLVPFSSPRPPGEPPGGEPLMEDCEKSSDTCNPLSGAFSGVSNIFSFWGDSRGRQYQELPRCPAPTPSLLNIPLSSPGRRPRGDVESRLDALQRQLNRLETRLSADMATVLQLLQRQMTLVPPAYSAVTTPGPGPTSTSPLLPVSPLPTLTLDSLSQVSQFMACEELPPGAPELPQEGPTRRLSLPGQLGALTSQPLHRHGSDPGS
Procedure: (§1) Inhibition experiment of compounds on hERG potassium ion channel
(§2) Cell culture and treatment: CHO cells stably expressing hERG were cultured in cell culture flasks and incubated in a 5% CO2 incubator at 37°C. When a cell density reached 60%-80%, the cell culture medium was aspirated, washed once with PBS, and then digested with Detachin. After digestion, the grown cells were neutralized in the cell culture medium, and then centrifuged, the supernatant was aspirated, the cell culture medium was added again to resuspend the grown cells, and the cell density was adjusted to 2-5×10^6 cells/mL for later use.
(§3) Compound preparation: the compound stock solution was diluted in 100% DMSO, that is, 10 µL compound stock solution was serially diluted in 20 µL DMSO by 3 folds to obtain six concentrations. Six concentrations of the compound (4 µL for each concentration) were diluted in 396 µL extracellular fluid by 100 folds to obtain six intermediate concentrations. Six intermediate concentrations of the compound (80 µL for each concentration) were diluted in 320 µL extracellular fluid by 5 folds to obtain final concentrations to be tested. […] DMSO in a final test concentration was not more than 0.2%, and DMSO at this concentration had no effect on the hERG potassium channel. The entire dilution process for compound preparation was performed using Bravo instrument.
(§4) Electrophysiological recording process: the processes of single-celled high-impedance sealing and whole-cell mode formation were all automatically completed by Qpatch instrument, under the whole-cell recording mode, the cells were clamped at -80 mV, before 5-second + 40 mV depolarization stimulus, the cells were given 50-millisecond - 50 mV pre-voltage, followed by repolarization to -50 mV for 5 seconds, and then returning to -80 mV. The voltage stimulus was given every 15 seconds, after 2 minutes of recording, extracellular fluid was recorded for 5 min, and then a drug was administrated, started from a lowest test concentration, each test concentration of the compound was given for 2.5 minutes, after all concentrations were given consecutively, a positive control compound Cisapride (3 µM) was given. At least 3 cells were tested for each concentration (n≥3).
(§5) Data processing: data analysis and processing were performed using GraphPad Prism 5.0 and Excel software. IC50 values of the compounds were calculated by fitting with the following equation using GraphPad Prism 5 software: Y = Bottom + (Top−Bottom)/(1+10^(∧)((LogIC50−X)*HillSlope)); [formula] where X is the Log value of the test sample concentration, Y is an inhibition percentage at a corresponding concentration, and Bottom and Top are the minimum and maximum inhibition percentages, respectively.

[4] = molecular target: T2, hERG potassium ion channel
Procedure: as §1, §2, §3, §4, §5

LPS-induced mice = experiment: LPS-induced mouse model, survival; type: in vivo, Balb/c mice; conditions: for survival status of mice (mice alive) 12h / survival status of mice (mice alive) 24h / survival status of mice (mice alive) 36h / survival status of mice (mice alive) 48h / survival status of mice (mice alive) 72h: 25 mg/kg
[5] = PO, Balb/c mice, read-out: AUC(0-t)
[6] = PO, Balb/c mice, read-out: Cmax
[7] = PO, Balb/c mice, read-out: T1/2 (converted)
[8] = THP-1 cells, PMA, LPS 1 µg/mL 3 h, drug 40 min, Nigericin 10 µM 40 min, IL-1β ELISA, read-out: IC50
[9] = male, mouse, brain/plasma, po, 10 mg/kg
[10] = male, mouse, plasma, po, 10 mg/kg

CN1CCC[C@@H](Nc2nnc(-c3ccc(C(F)(F)F)cc3O)n(C)c2=O)C1 [Ref-3, reference compound]
AUC(0-t) [1, 5]: 1820 ng·h/mL | Cmax [1, 6]: 1140 ng/mL | half-life [1, 7]: 0.87 h | IC50 (NLRP3 inflammasome; [8]): 6.49 nM

CCN1CCC[C@@H](Nc2nnc(-c3ccc4c(c3O)CCC4=C(F)F)n(C)c2=O)C1 [Compound 2, (R)-3-(1-(difluoromethylene)-4-hydroxy-2,3-dihydro-1H-inden-5-yl)-6-((1-ethylpiperidin-3-y 1)amino)-4-methyl-1,2,4-triazin-5(4H)-ketone]
AUC(0-t) [1, 5]: 15200 ng·h/mL | Cmax [1, 6]: 2690 ng/mL | half-life [1, 7]: 2.82 h | IC50 (NLRP3 inflammasome): 4.86 nM

CC(C)N1CCC[C@@H](Nc2nnc(-c3ccc4sccc4c3O)n(C)c2=O)C1 [Compound 36]
AUC(0-t) [1, 5]: 3320 ng·h/mL | Cmax [1, 6]: 1510 ng/mL | half-life [1, 7]: 1.24 h | IC50 (NLRP3 inflammasome): 1.55 nM

[2H]C([2H])([2H])C([2H])([2H])N1CCC[C@@H](Nc2nnc(-c3ccc4sccc4c3O)n(C)c2=O)C1 [Compound 6, (R)-6-((1-(ethyl-d5)piperidin-3-yl)amino)-3-(4-hydroxybenzo[b]thiophen-5-yl)-4-methyl-1,2,4-triazin-5(4H)-ketone]
AUC(0-t) [1, 5]: 8300 ng·h/mL | Cmax [1, 6]: 1340 ng/mL | half-life [1, 7]: 3.18 h | IC50 (NLRP3 inflammasome): 3.01 nM

[2H]C([2H])([2H])n1c(-c2ccc3sccc3c2O)nnc(N[C@@H]2CCCN(CC)C2)c1=O [Compound 55, (R)-6-((1-ethylpiperidin-3-yl)amino)-3-(4-hydroxybenzo[b]thiophen-5-yl)-4-(methyl-d3)-1,2,4-triazin-5(4H)-ketone]
AUC(0-t) [1, 5]: 7450 ng·h/mL | Cmax [1, 6]: 1710 ng/mL | half-life [1, 7]: 2.91 h | IC50 (NLRP3 inflammasome): 3.5 nM

CCN1CCC[C@@H](Nc2nnc(-c3ccc4sccc4c3O)n(CC)c2=O)C1 [Compound 12, (R)-4-ethyl-6-((1-ethylpiperidin-3-yl)amino)-3-(4-hydroxybenzo[b]thiophen-5-yl)-1,2,4-triazi n-5(4H)-ketone]
AUC(0-t) ([1]; male, Balb/c, po): 12800 ng·h/mL | Cmax ([1]; male, Balb/c, po): 2740 ng/mL | half-life ([1]; male, Balb/c, po): 3.08 h | Brain ([2]; 1 h): 498 ng/g | Brain ([2]; 6 h): 215 ng/g | Kp at 1 h [2, 9]: 0.13 | Kp at 6 h [2, 9]: 0.13 | concentration at 1 h [2, 10]: 3840 ng/mL | concentration at 6 h [2, 10]: 1700 ng/mL | IC50 (NLRP3 inflammasome; [8]): 7.2 nM | 20 uM Inhibition ratio [3]: 52.99%

CC(C)n1c(-c2ccc3sccc3c2O)nnc(N[C@@H]2CCCN(C)C2)c1=O [Compound 54, (R)-3-(4-hydroxybenzo[b]thiophen-5-yl)-4-isopropyl-6-((1-methylpiperidin-3-yl)amino)-1,2,4-triazin-5(4H)-ketone]
AUC(0-t) [1, 5]: 7470 ng·h/mL | Cmax [1, 6]: 1550 ng/mL | half-life [1, 7]: 4.25 h | 20 uM Inhibition ratio [4]: 7.77% | inhibitory effects on the hERG potassium ion channel (conclusion in words) [4]: Conclusion: compounds 3, 4, 5, 9, 16, 17, 24, 30, 40, 41, 42, 43, 54 and others have weak inhibitory effects on the hERG potassium ion channel, having weaker inhibitory effect than the reference compound Ref-1.

CCN1C[C@H](F)C[C@@H](Nc2nnc(-c3ccc(C4CC4)cc3O)n(C)c2=O)C1 [Compound 53, 3-(4-cyclopropyl-2-hydroxyphenyl)-6-(((3R,5R)-1-ethyl-5-fluoropiperidin-3-yl)amino)-4-met hyl-1,2,4-triazin-5 (4H)-ketone]
AUC(0-t) [1, 5]: 1400 ng·h/mL | Cmax [1, 6]: 1420 ng/mL | half-life [1, 7]: 3.85 h | IC50 (NLRP3 inflammasome): 18.7 nM

COCCn1c(-c2ccc3sccc3c2O)nnc(N[C@@H]2CCCN(C)C2)c1=O [Compound 51, 3-(4-hydroxybenzo[b]thiophen-5-yl)-6-{[(3R)-1-methylpiperidin-3-yl]amino}-4-(2-methoxyethyl)-4H,5H-1,2,4-triazin-5-ketone]
AUC(0-t) [1, 5]: 9780 ng·h/mL | Cmax [1, 6]: 2940 ng/mL | half-life [1, 7]: 2.39 h | IC50 (NLRP3 inflammasome): 180 nM

CCN1CCC[C@@H](Nc2nnc(-c3ccc(C4CC4)cc3O)n(C)c2=O)C1 [Compound 11, (R)-3-(4-cyclopropyl-2-hydroxyphenyl)-6-((1-ethylpiperidin-3-yl)amino)-4-methyl-1,2,4-triaz in-5(4H)-ketone]
IC50 (NLRP3 inflammasome; read-out: IC50): 6.5 nM

CN1C[C@H](F)C[C@@H](Nc2nnc(-c3ccc4sc(F)cc4c3O)n(C)c2=O)C1 [Compound 52, 3-(2-fluoro-4-hydroxybenzo[b]thiophen-5-yl)-6-{[(3R,5R)-5-fluoro-1-methylpiperidin-3-yl]amino}-4-methyl-4H,5H-1,2,4-triazin-5-ketone]
AUC(0-t) [1, 5]: 21400 ng·h/mL | Cmax [1, 6]: 8570 ng/mL | half-life [1, 7]: 3.16 h | IC50 (NLRP3 inflammasome): 5.06 nM

CCN1CCC[C@@H](Nc2nnc(-c3ccc4ccccc4c3O)n(C)c2=O)C1 [Compound 19, (R)-6-((1-ethylpiperidin-3-yl)amino)-3-(1-hydroxynaphthalen-2-yl)-4-methyl-1,2,4-triazin-5(4H)-ketone]
IC50 (NLRP3 inflammasome; read-out: IC50): 19.1 nM

O=c1c(N[C@@H]2CCCN(CCO)C2)nnc(-c2ccc3sccc3c2O)n1C1CC1 [Compound 23, (R)-4-cyclopropyl-3-(4-hydroxybenzo[b]thiophen-5-yl)-6-((1-(2-hydroxyethyl)piperidin-3-yl)amino)-1,2,4-triazin-5(4H)-ketone]
IC50 (NLRP3 inflammasome; read-out: IC50): 8.95 nM

Cn1c(-c2ccc3c(c2O)CCC3=C(F)F)nnc(N[C@@H]2CCCN(C3CC(F)(F)C3)C2)c1=O [Compound 14, (R)-6-((1-(3,3-Difluorocyclobutyl)piperidin-3-yl)amino)-3-(1-(difluoromethylene)-4-hydroxy-2,3-dihydro-1H-inden-5-yl)-4-methyl-1,2,4-triazin-5(4H)-ketone]
IC50 (NLRP3 inflammasome; read-out: IC50): 32 nM

Cn1c(-c2ccc3sccc3c2O)nnc(N[C@@H]2CCCN(CC3CC3)C2)c1=O [Compound 8, (R)-6-((1-(cyclopropylmethyl)piperidin-3-yl)amino)-3-(4-hydroxybenzo[b]thiophen-5-yl)-4-methyl-1,2,4-triazin-5(4H)-ketone]
IC50 (NLRP3 inflammasome; [8]): 1.92 nM | 20 uM Inhibition ratio [3]: 69.48%

Cn1c(-c2ccc3ccccc3c2O)nnc(N[C@@H]2CCCN(CCO)C2)c1=O [Compound 20, (R)-6-((1-(2-hydroxyethyl)piperidin-3-yl)amino]-3-(1-hydroxynaphthalen-2-yl)-4-methyl-1,2,4-triazin-5(4H)-ketone]
IC50 (NLRP3 inflammasome; read-out: IC50): 35.1 nM

CC#Cc1ccc(-c2nnc(N[C@@H]3CCCN(CC)C3)c(=O)n2C)c(O)c1 [Compound 28, (R)-6-((1-ethylpiperidin-3-yl)Jamino)-3-(2-hydroxy-4-(prop-1-yn-1-yl)phenyl)-4-methyl-1,2,4-triazin-5(4H)-ketone]
IC50 (NLRP3 inflammasome; read-out: IC50): 29.6 nM

CN1CCC[C@@H](Nc2nnc(-c3ccc4ccccc4c3O)n(C)c2=O)C1 [Compound 18, (R)-3-(1-hydroxy-2-naphthyl)-4-methyl-6-((1-methylpiperidin-3-yl)amino)-1,2,4-triazin-5(4H )-ketone]
IC50 (NLRP3 inflammasome; read-out: IC50): 25 nM

CN1CCC[C@@H](Nc2nnc(-c3ccc4c(c3O)CCC4=C(F)F)n(C)c2=O)C1 [Compound 13, (R)-3-(1-(difluoromethylene)-4-hydroxy-2,3-dihydro-1H-inden-5-yl)-4-methyl-6-((1-methylpiperidin-3-yl)amino)-1,2,4-triazin-5 (4H)-ketone]
AUC(0-t) [1, 5]: 98700 ng·h/mL | Cmax [1, 6]: 11400 ng/mL | half-life [1, 7]: 5.47 h | IC50 (NLRP3 inflammasome): 1.36 nM

Cc1nc(N[C@@H]2CCCC[C@H]2O)nnc1-c1ccc(C(F)(F)F)cc1O [Ref-2, reference compound]
AUC(0-t) [1, 5]: 270 ng·h/mL | Cmax [1, 6]: 246 ng/mL | half-life [1, 7]: 2.6 h | Brain ([2]; 1 h): 168 ng/g | Plasma ([2]; 1 h): 264 ng/mL | Plasma ([2]; 6 h): 8.27 ng/mL | Kp at 1 h ([2]; mouse, brain, po, 10 mg/kg): 0.63 | Kp at 6 h ([2]; mouse, brain, po, 10 mg/kg): 0.17 | 72h Survival rate (LPS-induced mice; 25 mg/kg oral, 1 h before 10 mg/kg LPS i.p.): 50% | survival status of mice (mice alive) 12h (LPS-induced mice; First cage (5 mice)): 5 | survival status of mice (mice alive) 24h (LPS-induced mice; First cage (5 mice)): 5 | survival status of mice (mice alive) 36h (LPS-induced mice; First cage (5 mice)): 4 | survival status of mice (mice alive) 48h (LPS-induced mice; First cage (5 mice)): 2 | survival status of mice (mice alive) 72h (LPS-induced mice; First cage (5 mice)): 2 | survival status of mice (mice alive) 12h (LPS-induced mice; Second cage (5 mice)): 5 | survival status of mice (mice alive) 24h (LPS-induced mice; Second cage (5 mice)): 4 | survival status of mice (mice alive) 36h (LPS-induced mice; Second cage (5 mice)): 4 | survival status of mice (mice alive) 48h (LPS-induced mice; Second cage (5 mice)): 3 | survival status of mice (mice alive) 72h (LPS-induced mice; Second cage (5 mice)): 3 | IC50 (NLRP3 inflammasome): 14.7 nM
